Measured values from patent US20150132747A1, “Treatment of Neurodegeneration and Neuroinflammation” (BIOGEN IDEC MA INC., priority 2009, published 2015).
Counter-ions that a name gives are not always drawn.

Tests used:
[1] = test system: human spinal cord astrocytes; assay: H2O2 challenge of human spinal cord astrocytes: viability, metabolism, ATP; format: cell-based; conditions: FIG. 8C
Experimental: In another experiment, primary cultures of human spinal cord astrocytes were treated for 24 hr with a titration of MMF or DMSO as a diluent control. Following 24 hr incubation with compound, cells were washed 1× with HBSS and challenged with […] H2O2 for two hours, then washed in normal growth media, then incubated for an additional 24 hours.

[2] = test system: human spinal cord astrocytes; assay: Glutathione, metabolic activity and viability of cultured human spinal cord astrocytes; format: cell-based; conditions: 24 hr MMF titration, FIG. 6C
Experimental: Primary cultures of human spinal cord astrocytes were treated for 24 hr with a titration of MMF or DMSO as a diluent control. Following 24 hr incubation with compound, cells were washed 1× with growth media and incubated with the cell-permeant substrate monochlorobimane. When bound to glutathione this substrate increases fluorescence. […] FIG. 6A. Similar MMF treated cells were also incubated with the cell permeant substrate resazurin, which increases fluorescence upon reduction to resorufin by cellular redox mechanisms and is used as a measure of cellular metabolic activity (CellTiter-Blue assay). […] FIG. 6B. To ensure the increases in glutathione and metabolic activity were not simply due to cellular proliferation in response to MMF treatment, parallel dishes of cells were incubated with calcein AM. Cellular esterases cleave this molecule to generate a fluorescent metabolite, which provides a measure of cell viability and relative total cell numbers. […] FIG. 6C.

[3] = test system: human spinal cord astrocytes; assay: H2O2-induced Ca++ mobilization in human spinal cord astrocytes (Calcium4 dye); format: cell-based; conditions: Astrocyte, 24 hr MMF, 50 mM H2O2, FIG. 7C, read-out: EC50, protection against H2O2-induced Ca++ mobilization (non-linear regression)
Experimental: In another experiment, primary cultures of human spinal cord astrocytes were treated for 24 hr with a titration of MMF or DMSO as a diluent control. Following 24 hr incubation with compound, cells were washed 1× with HBSS and incubated with Calcium4 (Molecular Devices) loading dye. This dye permeates into cells and increases fluorescence upon binding of free intracellular Ca^++. Cells were then challenged with 50 mM H2O2 and monitored for changes in fluorescence. […] FIG. 7C.

[4] = test system: rat spinal cords (EAE); assay: Histology and morphometry of lumbar spinal cord sections of EAE rats (GFAP, IBA-1, Luxol Fast Blue); format: in vivo
Experimental: Lumbar spinal cord sections were prepared as FFPE sections for immunohistochemistry and processed on DAKO autostainer using GFAP antibody (DAKO), IBA-1 (Wako), CD3 (DAKO). Aperio Spectrum Color Deconvolution software was used for morphometric analysis. […] Panels (a) and (b) are from a rat treated with vehicle alone at 5× and 20× magnification, respectively, while panels (c) and (d) are from a rat treated with 100 mg/kg DMF, shown at 5× and 20× magnification, respectively. […] Morphometry analysis of EAE spinal cords was performed with Aperio software. Histological alterations were quantified with Aperio Image Scope software v10.1. The Color Deconvolution algorithm was used to select intensity thresholds either for brown DAB staining (GFAP and IBA-1 Immunostains) or for bright turquoise blue staining (Luxol Fast Blue). Positive staining was determined by the percent of strong positive stained pixels for each intensity threshold. Three lumbar spinal cord sections were quantitated per rat and the values for percent strong positive pixels were averaged for the final intensity value.

[5] = test system: primary rat astrocytes; assay: Quantitative PCR of gene expression in primary cultured astrocytes, with or without LPS; format: cell-based
Experimental: Rat astrocytes from cortex, hippocampus and striatum (Lonza clontech) were cultured as described by manufacturers protocol. Limiting dilutions of DMF in DMSO were added to cultures for 6 or 24 hours and stimulated with E. Coli LPS (Sigma). RNA was prepared using QIAgen Rneasy method. […] It is also apparent from the data that NQO1 is induced at a higher level by exposure to DMF for 24 hrs compared to induction by a 6 hour exposure. Direct effects of BG00012 on specific astrocytic and microglial cells were tested in vitro using primary rat astrocytes and RAW264.7 macrophage cells.

[6] = test system: primary astrocytes; assay: Gene expression profiling of LPS stimulated primary astrocytes; format: cell-based, rat; conditions: LPS 0, 10, 100 ng/ml; DMF 0, 3, 10, 30 μM, FIG. 5
Experimental: Primary astrocytes were treated with LPS at 0, 10, and 100 ng/ml, as indicated, and also treated with DMF at 0, 3, 10, or 30 μM as indicated. The magnitude of expression of each gene under each condition was scaled from 0 to 1, so that differences in color represent changes in expression of each gene as the conditions varied. The darkest green color represents no detectable expression (0), while the brightest red color represents the highest expression measured for that gene (1). […] The induced expression of many of the markers was suppressed by DMF treatment.
Direct effects of BG00012 on specific astrocytic and microglial cells were tested in vitro using primary rat astrocytes and RAW264.7 macrophage cells.

[7] = test system: Nrf2; assay: Nrf2 Western blotting, primary rat astrocytes; format: cell-based; conditions: total cell lysates, GAPDH control, FIG. 9
Experimental: (§1) Total cell lysates were prepared from the astrocyte cultures treated as indicated above. Nrf2 was detected by Western blotting. GAPDH was included as a housekeeping protein control.

[8] = test system: Nrf2; assay: Nrf2 Western blotting, primary human astrocytes; format: cell-based; conditions: total cell lysates, GAPDH control, FIG. 9
Experimental: as §1

[9] = test system: rat EAE (MOG/IFA immunized Brown Norway rats); assay: Rat EAE model, clinical score; format: in vivo; conditions: FIG. 1A
Experimental: Female Brown Norway rats (Charles River Laboratories) were immunized intradermally at the base of the tail with MOG 1-125 100 ug/rat in IFA at day 0. Day 3 DMF (BG00012) qd 5, 25, 50, 100, 200 mg/kg delivered orally as a suspension in 0.8% HPMC. N=6 per group. Scoring 0=no disease, 1=tail paralysis, 2=hind limb weakness, 3=hind limb paralysis, 4=hind limb paralysis and forelimb weakness, 5=moribund or dead. Experimental in vivo procedures were performed in accordance with Institutional Animal Committee guidelines crEAE was induced by intradermal MOG/IFA immunization in Brown Norway rats. BG00012 was administered orally at a daily interval beginning three days after immunization. […] For the 100 mg/kg treatment group, average disease score at day 28 was 0.71 (n=6, SD=1.17) compared to 2.29 (n=6, SD=1.29) for the vehicle group.

[10] = test system: primary rat astrocytes; assay: Global gene expression analysis (Affymetrix GeneChip) in astrocytes treated with DMF; format: cell-based; conditions: p<10^−7 versus untreated astrocytes, FIG. 10
Experimental: Global analysis of gene expression in astrocytes treated with DMF was performed using the Affymetrix GeneChip technology. […] The resulting gene list was annotated using the Ingenuity IPA database. […] Specific genes involved in cytoprotection and glutathione metabolism, identified in this assay, include, but are not limited to, Gsta2, Gsta3, Gclc, Ggt1, Txnrd1, Srxn1, Sqstm1, and Nqo1.

SMILES | cellular ATP levels at the highest concentration of MMF [1] | cell viability and relative total cell numbers (calcein AM) [2] | EC50 [3] | activated astrocytes in grey matter of spinal cords (GFAP antibody) ([4]; 100 mg/kg DMF versus vehicle alone, FIG. 3) | myelin loss during EAE in rat spinal cords (Luxol Fast Blue morphometry) ([4]; FIG. 12) | LPS induced TNF expression (quantitative PCR) ([5]; DMF 24 hours, LPS 0, 10, 30 ng/ml 4 hrs prior to harvest, FIG. 4B) | GFAP expression (quantitative PCR) ([5]; DMF for 6 hrs and 24 hrs, FIG. 4A) | NQO1 expression (quantitative PCR) ([5]; DMF for 6 hrs and 24 hrs, FIG. 4C) | LPS-induced expression of Ccl20, Ccl3, Ccl4, Cxcl1, Cxcl10, Cxcl2, Cxcl3, Cxcl6, IL1a, II1b, Tnf, Ifit3, Zc3h12a [6] | levels of Nrf2 (Western blotting), primary rat astrocytes [7] | levels of Nrf2 (Western blotting), primary human astrocytes [8] | EAE disease ([9]; 200 mg/kg) | EAE symptoms ([9]; various doses (5-200 mg/kg qd oral from day 3)) | expression of Nrf2 target genes (incl. glutathione metabolism genes) [10]
COC(=O)/C=C/C(=O)O [MMF, monomethyl fumarate] | appeared to reduce cellular ATP levels | No substantial concentration-dependent changes | 5.4 µM | – | – | – | – | – | – | – | – | – | – | –
COC(=O)/C=C/C(=O)OC [DMF, dimethyl fumarate] | – | – | – | fewer activated astrocytes | diminishes myelin loss | repressed by DMF in a dose dependent manner | inhibits GFAP expression in a concentration dependent manner | induces NQO1 expression in a concentration dependent manner | strongly suppressed | increase levels of Nrf2 | increase levels of Nrf2 | completely abrogated disease | reduced EAE symptoms in a dose-dependent manner | activates expression of Nrf2 target genes
